Assay results from US9988445B2, “Method of treatment of pain by administration of a CCL17 specific antibody” (The University of Melbourne, priority 2013, dated 2018).
Entries after “also recorded” stand apart in the source; their conditions may differ.

B1: CCL17: chemokine (C-C motif)17, also known as thymus- and activation-regulated chemokine (protein, UniProt Q92583 24-94, looked up)
C-C motif chemokine 17: ARGTNVGRECCLEYFKGAIPLRKLKTWYQTSEDCSRDAIVFVTVQGRAICSDPNNKRVKNAVKYLQSLERS

Experiments:
[1] = system: mice; assay: GM-CSF given intraplantarly, pain development (Incapacitance Tester); type: in vivo; settings: GM-CSF 20 ng i.pl., four hours, vs. saline
Protocol: Mice were treated with a monoclonal antibody (mAb) to CCL17 (300 μg) or with an isotype control mAb (300 μg) at the same time as being given GM-CSF and pain was measured at four hours later.
(§1) An Incapacitance Tester (Dual Weight Averager) is used to automatically and reproducibly assess the analgesic potency by measuring the weight distribution on the two hind paws.
(§2) Weight placed on each hind limb was measured over a 3 second period. 3 separate measurements taken per mouse for each time point then averaged. Results are expressed as injected limb/control limb×100. Thus a value of 100 means that equal weight is being placed on the right and the left limb. A value below 100 means less weight is being placed on the injected limb (left) compared with the control limb (right).

[2] = system: mice; assay: CCL17 given intraplantarly, pain development (Incapacitance Tester); type: in vivo; settings: CCL17 50 ng i.pl., 6 hours, p<0.05 vs. saline
Protocol: as §1, §2
Pain is identified as a decrease in the ratio of weight distribution between the CCL17-injected and saline-injected paw where a percentage of less than 95 indicates pain development (see Example 1 above). Thus, CCL17 can induce pain.

Molecule | pain development after i.pl. injection in the footpad [1] | pain development (ratio of weight distribution between CCL17-injected and saline-injected paw; less than 95 indicates pain) [2]
GM-CSF: proinflammatory cytokine GM-CSF | develop pain | 
B1 |  | develop pain; also recorded: induces pain
